Data taken from patent US20230000870A1, “METHODS OF TREATING CANCER IN BIOMARKER-IDENTIFIED PATIENTS WITH INHIBITORS OF CYCLIN-DEPENDENT KINASE 7 (CDK7)” (Syros Pharmaceuticals, Inc., priority 2019, published 2023).

Key:
A673 cells = assay: Inhibition of proliferation of A673 cells (CyQUANT, 72 hour); type: cell-based, human; settings: read-out: Inhibition of Proliferation of A673 Cells (calculated IC50)
How it was run: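 Read-out is CyQUANT after a 72 h proliferation period, following the kit protocol. Dilution series in 0.5-log steps over the stated 4 μM to […] range. Cells are A673 (human Ewing's sarcoma), grown in DMEM with 10% FBS and 1 mM sodium pyruvate at 37 °C under 5% CO2.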

CDK2/Cyclin E1 complex = CDK2/Cyclin E1 complex (Homo sapiens, UniProt P24941); assay: CDK2 kinase inhibition assay (Caliper/LabChip EZ Reader); type: biochemical; settings: CDK2/Cyclin E1 0.5 nM, ATP 2 mM, 35 min at 27° C.
How it was run: (§1)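 Incubation times were set for ~20% (±5%) peptide phosphorylation by uninhibited enzyme: CDK7 35 min, CDK2 35 min (0.5 nM complex, 2 μM 5-FAM-CDK7tide, 2 mM MgCl2), CDK12 3 hr (50 nM, 2 μM 5-FAM-CDK9tide, 2 mM MgCl2), CDK9 15 min (8 nM, 2 μM 5-FAM-CDK9tide, 10 mM MgCl2). Read-out on LabChip EZ Reader, 27° C.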

CDK9/Cyclin T1 complex = CDK9/Cyclin T1 complex (Homo sapiens, UniProt P50750); assay: CDK9 kinase inhibition assay (Caliper/LabChip EZ Reader); type: biochemical; settings: CDK9/Cyclin T1 8 nM, ATP 2 mM, 15 min at 27° C.
How it was run: as §1

[1] = target: T1, CDK12 (aa686-1082)/Cyclin K complex (Homo sapiens, UniProt Q9NYV4); assay: CDK12 kinase inhibition assay (Caliper/LabChip EZ Reader); type: biochemical; settings: CDK12 (aa686-1082)/Cyclin K 50 nM, ATP 2 mM, 3 hr at 27° C.
T1 construct: CDK12 (aa686-1082)/Cyclin K complex
How it was run: as §1

[2] = target: CDK7/Cyclin H/MAT1 complex (Homo sapiens, UniProt P50613); assay: CDK7 kinase inhibition assay (Caliper/LabChip EZ Reader); type: biochemical; settings: CDK7/Cyclin H/MAT1 6 nM, ATP 2 mM, 35 min at 27° C.
How it was run: as §1

Chain of CDK7/Cyclin H/MAT1 complex (P50613 whole entry): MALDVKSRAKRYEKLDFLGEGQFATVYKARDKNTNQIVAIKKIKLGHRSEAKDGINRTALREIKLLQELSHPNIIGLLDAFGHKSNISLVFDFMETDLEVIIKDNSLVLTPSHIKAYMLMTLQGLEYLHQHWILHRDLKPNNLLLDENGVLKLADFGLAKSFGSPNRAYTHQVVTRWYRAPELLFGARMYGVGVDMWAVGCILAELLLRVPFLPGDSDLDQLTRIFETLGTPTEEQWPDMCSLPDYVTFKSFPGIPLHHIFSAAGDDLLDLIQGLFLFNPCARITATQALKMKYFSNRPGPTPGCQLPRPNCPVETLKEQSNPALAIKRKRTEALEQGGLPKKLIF
Chain of CDK7/Cyclin H/MAT1 complex (P51946 whole entry partner): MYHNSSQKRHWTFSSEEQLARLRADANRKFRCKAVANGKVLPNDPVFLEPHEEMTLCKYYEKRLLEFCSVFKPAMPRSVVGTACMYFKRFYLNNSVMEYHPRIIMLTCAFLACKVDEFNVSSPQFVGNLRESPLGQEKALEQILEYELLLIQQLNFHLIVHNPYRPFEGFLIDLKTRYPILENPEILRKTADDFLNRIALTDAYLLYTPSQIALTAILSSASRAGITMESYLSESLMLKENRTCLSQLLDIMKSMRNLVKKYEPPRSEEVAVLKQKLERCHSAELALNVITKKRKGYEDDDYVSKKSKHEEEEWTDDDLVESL
Chain of CDK7/Cyclin H/MAT1 complex (P51948 whole entry partner): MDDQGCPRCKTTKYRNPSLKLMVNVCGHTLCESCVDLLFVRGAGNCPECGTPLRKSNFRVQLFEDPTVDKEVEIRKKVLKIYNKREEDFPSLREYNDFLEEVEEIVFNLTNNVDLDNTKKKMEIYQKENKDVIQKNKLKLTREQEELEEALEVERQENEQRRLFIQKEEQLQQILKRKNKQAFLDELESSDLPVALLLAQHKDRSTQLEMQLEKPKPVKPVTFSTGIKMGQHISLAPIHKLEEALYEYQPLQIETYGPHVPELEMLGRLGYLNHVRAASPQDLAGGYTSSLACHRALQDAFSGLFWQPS
Chain of CDK9/Cyclin T1 complex (P50750 whole entry): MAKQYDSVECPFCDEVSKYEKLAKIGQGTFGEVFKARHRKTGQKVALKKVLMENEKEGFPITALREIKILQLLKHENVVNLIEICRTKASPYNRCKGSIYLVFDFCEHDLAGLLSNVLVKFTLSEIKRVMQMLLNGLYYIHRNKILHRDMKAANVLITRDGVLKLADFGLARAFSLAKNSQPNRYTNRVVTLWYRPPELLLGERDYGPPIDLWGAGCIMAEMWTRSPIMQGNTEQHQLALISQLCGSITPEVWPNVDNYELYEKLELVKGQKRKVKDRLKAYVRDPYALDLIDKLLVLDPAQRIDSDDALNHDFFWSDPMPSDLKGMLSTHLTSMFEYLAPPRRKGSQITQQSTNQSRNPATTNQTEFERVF
Chain of CDK9/Cyclin T1 complex (O60563 whole entry partner): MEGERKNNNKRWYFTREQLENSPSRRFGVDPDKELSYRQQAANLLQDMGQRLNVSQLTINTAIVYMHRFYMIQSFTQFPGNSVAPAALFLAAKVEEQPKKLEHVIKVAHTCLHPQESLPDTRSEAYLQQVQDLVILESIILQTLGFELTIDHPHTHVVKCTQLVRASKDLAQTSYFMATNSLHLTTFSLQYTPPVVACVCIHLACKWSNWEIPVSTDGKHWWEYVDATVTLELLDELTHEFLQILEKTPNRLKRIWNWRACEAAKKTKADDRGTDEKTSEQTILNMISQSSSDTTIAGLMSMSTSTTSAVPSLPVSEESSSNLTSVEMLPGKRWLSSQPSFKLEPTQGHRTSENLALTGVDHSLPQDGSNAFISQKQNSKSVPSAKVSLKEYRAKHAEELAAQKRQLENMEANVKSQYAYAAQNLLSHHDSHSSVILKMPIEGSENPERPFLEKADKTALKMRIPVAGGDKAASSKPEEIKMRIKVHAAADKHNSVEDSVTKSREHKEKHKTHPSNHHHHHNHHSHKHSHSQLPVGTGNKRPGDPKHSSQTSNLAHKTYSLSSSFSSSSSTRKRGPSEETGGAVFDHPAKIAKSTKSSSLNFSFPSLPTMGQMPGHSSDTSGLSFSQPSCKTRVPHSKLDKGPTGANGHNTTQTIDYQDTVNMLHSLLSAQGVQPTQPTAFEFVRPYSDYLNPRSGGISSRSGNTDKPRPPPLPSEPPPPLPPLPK
T1 sequence (Q9NYV4 686-1082): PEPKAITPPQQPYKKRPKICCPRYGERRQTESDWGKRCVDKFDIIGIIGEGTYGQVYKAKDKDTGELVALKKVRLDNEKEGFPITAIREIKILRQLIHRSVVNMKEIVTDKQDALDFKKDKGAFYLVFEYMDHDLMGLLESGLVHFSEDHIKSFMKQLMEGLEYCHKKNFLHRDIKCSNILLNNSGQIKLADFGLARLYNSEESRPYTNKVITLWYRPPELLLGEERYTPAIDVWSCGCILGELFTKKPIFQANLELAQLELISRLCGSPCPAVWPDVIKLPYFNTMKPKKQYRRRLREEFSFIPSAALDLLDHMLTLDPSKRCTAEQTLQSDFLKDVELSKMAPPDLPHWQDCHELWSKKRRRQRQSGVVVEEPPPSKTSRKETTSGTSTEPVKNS
T1 sequence (O75909 whole entry partner, the tested form may be a part): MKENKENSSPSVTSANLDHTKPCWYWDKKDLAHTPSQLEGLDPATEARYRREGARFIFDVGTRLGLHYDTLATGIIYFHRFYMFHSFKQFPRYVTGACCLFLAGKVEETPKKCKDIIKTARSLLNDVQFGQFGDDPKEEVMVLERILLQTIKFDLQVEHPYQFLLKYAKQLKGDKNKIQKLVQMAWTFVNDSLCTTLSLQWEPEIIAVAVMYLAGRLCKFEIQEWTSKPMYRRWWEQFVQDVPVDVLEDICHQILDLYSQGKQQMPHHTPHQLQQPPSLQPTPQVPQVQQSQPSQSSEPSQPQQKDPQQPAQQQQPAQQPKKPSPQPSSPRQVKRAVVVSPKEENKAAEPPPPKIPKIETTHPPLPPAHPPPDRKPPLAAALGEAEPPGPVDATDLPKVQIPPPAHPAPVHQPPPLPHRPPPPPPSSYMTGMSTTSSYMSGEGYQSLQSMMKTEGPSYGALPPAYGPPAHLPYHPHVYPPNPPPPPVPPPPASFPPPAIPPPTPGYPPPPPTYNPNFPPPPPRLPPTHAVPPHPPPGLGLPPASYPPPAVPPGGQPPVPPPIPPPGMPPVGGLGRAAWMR

| SMILES | IC50 (A673 cells) [nM] | IC50 (CDK2/Cyclin E1 complex) [nM] | IC50 (CDK9/Cyclin T1 complex) [nM] | IC50 [1] [nM] | IC50 [2] [nM] |
| --- | --- | --- | --- | --- | --- |
| CCc1cnc(N[C@H]2CCCNC2)nc1-c1c[nH]c2c(C)cccc12 [Compound 137] | 20 to 200 | 200 to 5000 | 200 to 5000 | 200 to 5000 | < 20 |
| CNC(=O)C1CNCC(Nc2ncc(C(F)(F)F)c(-c3c[nH]c4ccccc34)n2)C1 (centres unmarked) [Compound 256] | 200 to 5000 | 200 to 5000 | ≥ 5000 | 200 to 5000 | 20 to 200 |
| Fc1cccc2c(-c3nc(NC4CCCNC4)ncc3Cl)n[nH]c12 (centres unmarked) [Compound 155] | < 20 | 200 to 5000 | 200 to 5000 | 200 to 5000 | 20 to 200 |
| FC(F)(F)Cc1cnc(N[C@H]2CCCNC2)nc1-c1c[nH]c2ccccc12 [Compound 158] | 20 to 200 | ≥ 5000 | ≥ 5000 | 200 to 5000 | 200 to 5000 |
| CC(C)C1CCC(Nc2ncc(C(F)(F)F)c(-c3c[nH]c4ccccc34)n2)CN1 (centres unmarked) [Compound 260] | 200 to 5000 | ≥ 5000 | ≥ 5000 | 200 to 5000 | 200 to 5000 |
| Cc1cccc2c(-c3nc(NC4CCCNC4)ncc3CC(C)C)c[nH]c12 (centres unmarked) [Compound 140] | 200 to 5000 | ≥ 5000 | ≥ 5000 | ≥ 5000 | 200 to 5000 |
| CC(C)(O)CCc1ccc2c(-c3nc(NC4CCCNC4)ncc3C(F)(F)F)c[nH]c2c1 (centres unmarked) [Compound 242] | 20 to 200 | ≥ 5000 | 200 to 5000 | 200 to 5000 | 20 to 200 |
| Clc1cnc(N[C@H]2CCCNC2)nc1-c1n[nH]c2ccccc12 [Compound 174] | 20 to 200 | 200 to 5000 | 200 to 5000 | 200 to 5000 | < 20 |
| CCCCCc1ccc2c(-c3nc(N[C@@H]4CCCNC4)ncc3C(F)(F)F)c[nH]c2c1 [Compound 241] | 20 to 200 | 200 to 5000 | 200 to 5000 | 200 to 5000 | 20 to 200 |
| CC(=O)c1cccc2c(-c3nc(NC4CCCNC4)ncc3Cl)c[nH]c12 (centres unmarked) [Compound 142] | < 20 | 200 to 5000 | 200 to 5000 | 200 to 5000 | < 20 |
| OC1CCC(c2cccc3c(-c4nc(NC5CCCNC5)ncc4C(F)(F)F)c[nH]c23)CC1 (centres unmarked) [Compound 207] | < 20 | 200 to 5000 | 200 to 5000 | 200 to 5000 | < 20 |
| CC1CNCC(Nc2ncc(Cl)c(-c3c[nH]c4ccccc34)n2)C1 (centres unmarked) [Compound 182] | 20 to 200 | ≥ 5000 | 200 to 5000 | 200 to 5000 | 20 to 200 |
| Cc1[nH]c2ccccc2c1-c1nc(NC2CCCNC2)ncc1Cl (centres unmarked) [Compound 106] | 20 to 200 | ≥ 5000 | 200 to 5000 | 200 to 5000 | 20 to 200 |
| FC1CCNCC1Nc1ncc(Cl)c(-c2c[nH]c3ccccc23)n1 (centres unmarked) [Compound 121] | 20 to 200 | 200 to 5000 | 200 to 5000 | 200 to 5000 | 20 to 200 |
| Cc1nc(-c2ccc3c(-c4nc(NC5CCCNC5)ncc4C(F)(F)F)c[nH]c3c2)n[nH]1 (centres unmarked) [Compound 235] | 200 to 5000 | 200 to 5000 | 200 to 5000 | 200 to 5000 | < 20 |
| Cc1nn(C)cc1-c1ccc2c(-c3nc(N[C@H]4CCCNC4)ncc3C(F)(F)F)c[nH]c2c1 [Compound 226] | < 20 | 200 to 5000 | 200 to 5000 | 200 to 5000 | < 20 |

| SMILES | IC50 (A673 cells) [nM] | IC50 (CDK2/Cyclin E1 complex) [nM] | IC50 (CDK9/Cyclin T1 complex) [nM] | IC50 [1] [nM] | IC50 [2] [nM] |
| --- | --- | --- | --- | --- | --- |
| CCC(=O)NC1CNCC(Nc2ncc(C(F)(F)F)c(-c3c[nH]c4c(S(C)(=O)=O)cccc34)n2)C1 (centres unmarked) [Compound 259] | 20 to 200 | 200 to 5000 | 200 to 5000 | 200 to 5000 | < 20 |
| N#Cc1ccc2[nH]cc(-c3nc(NC4CCCNC4)ncc3C(F)(F)F)c2c1 (centres unmarked) [Compound 169] | 200 to 5000 | ≥ 5000 | ≥ 5000 | 200 to 5000 | 20 to 200 |
| CC(O)c1cnc(NC2CCCNC2)nc1-c1c[nH]c2ccccc12 (centres unmarked) [Compound 238] | 200 to 5000 | ≥ 5000 | ≥ 5000 | ≥ 5000 | 200 to 5000 |
| OC1CCNCC1Nc1ncc(Cl)c(-c2c[nH]c3ccccc23)n1 (centres unmarked) [Compound 113] | 200 to 5000 | ≥ 5000 | ≥ 5000 | 200 to 5000 | 20 to 200 |
| CCC1CCC(Nc2ncc(C(F)(F)F)c(-c3c[nH]c4ccccc34)n2)CN1 (centres unmarked) [Compound 217] | 20 to 200 | 200 to 5000 | 200 to 5000 | 200 to 5000 | < 20 |
| CC(C)n1cc(-c2nc(NC3CCCNC3)ncc2Cl)c2ccccc21 (centres unmarked) [Compound 127] | 200 to 5000 | 200 to 5000 | 200 to 5000 | ≥ 5000 | 200 to 5000 |
| Cc1c(-c2ccc3c(-c4nc(NC5CCCNC5)ncc4C(F)(F)F)c[nH]c3c2)cnn1C (centres unmarked) [Compound 227] | 20 to 200 | 200 to 5000 | 200 to 5000 | 200 to 5000 | < 20 |
| C#Cc1cnc(N[C@H]2CCCNC2)nc1-c1cn(C)c2ccccc12 [Compound 195] | 20 to 200 | ≥ 5000 | ≥ 5000 | ≥ 5000 | 200 to 5000 |
| CC(O)c1cnc(NC2CCCNC2)nc1-c1c[nH]c2ccccc12 (centres unmarked) [Compound 239] | 200 to 5000 | ≥ 5000 | ≥ 5000 | ≥ 5000 | 200 to 5000 |
| Cc1n[nH]cc1-c1ccc2[nH]cc(-c3nc(NC4CCCNC4)ncc3C(F)(F)F)c2c1 (centres unmarked) [Compound 229] | < 20 | 200 to 5000 | 200 to 5000 | 200 to 5000 | < 20 |
| FCCc1cnc(NC2CCCNC2)nc1-c1c[nH]c2ccccc12 (centres unmarked) [Compound 206] | 200 to 5000 | ≥ 5000 | 200 to 5000 | 200 to 5000 | 20 to 200 |
| Cc1cn(-c2cccc3c(-c4nc(NC5CCCNC5)ncc4C(F)(F)F)c[nH]c23)cn1 (centres unmarked) [Compound 172] | < 20 | 200 to 5000 | 200 to 5000 | 200 to 5000 | < 20 |
| FC(F)(F)c1cnc(NC2CCCNC2)nc1-c1c[nH]c2ccccc12 (centres unmarked) [Compound 102] | < 20 | 200 to 5000 | 20 to 200 | 20 to 200 | < 20 |
| CCS(=O)(=O)c1ccc2c(-c3nc(NC4CCCNC4)ncc3C(F)(F)F)c[nH]c2c1 (centres unmarked) [Compound 274] | 20 to 200 | 200 to 5000 | 200 to 5000 | 200 to 5000 | < 20 |
| CCC1CCC(Nc2ncc(C(F)(F)F)c(-c3c[nH]c4ccccc34)n2)CN1 (centres unmarked) [Compound 211] | 20 to 200 | 200 to 5000 | 200 to 5000 | 200 to 5000 | 20 to 200 |
